# In US8119657B2, “Enantiomeric compositions of 2-amino-1-(2-isopropylpyrazolo[1,5-α]pyridin-3-yl)propan-1-one and related methods” (MediciNova, Inc., priority 2009, dated 2012):
# “Also recorded” adds a separate entry of the source. Marks after values point to notes of the source that are not given here.
# How the values were obtained:
# [1] = tested on: rat morphine withdrawal model; test: Rat morphine withdrawal model (naloxone-precipitated); assay type: in vivo; details: rats, 25 mg/kg PO QD for 7 days
# Procedure: The ability of (S)-AV1013 to reduce/ameliorate withdrawal behavior relative to a control was evaluated in rats. The study was conducted in accordance with the method disclosed by Hutchinson et. al., Brain Behavior and Immunity, V. 23, (2009), p 240-250.
# Rats were administered morphine in escalating doses over a five day period to induce dependence (15-22.5 mg/kg/day). (S)-AV1013 (25 mg/kg PO QD) or vehicle (saline) administration was initiated two days prior and continued concomitant with the morphine dosing regimen for a total of 7-days. On day seven all animals were administered naloxone SC to precipitate withdrawal symptoms. Specific withdrawal behaviors were scored over 6×, 10 minute intervals. A total of 15 rats per group were evaluated.
# [2] = biological target: T1, rhMIF (recombinant human Macrophage migration Inhibitory Factor) (Homo sapiens, UniProt P14174); test: MIF-induced migration of human peripheral blood monocytes (PBMCs); assay type: cell-based; details: rhMIF 90 nM, dilution series of inhibitor
# T1 sequence (P14174 2-115 limits assumed): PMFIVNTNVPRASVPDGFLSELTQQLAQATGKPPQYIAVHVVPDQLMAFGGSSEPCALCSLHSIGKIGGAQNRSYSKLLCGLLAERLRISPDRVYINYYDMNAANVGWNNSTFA
# Procedure: The chemo attractant activities of rhMIF (recombinant human Macrophage migration Inhibitory Factor) and the effect of inhibitors were measured using human peripheral blood monocytes (PBMCs) isolated from whole blood by centrifugation on Histopaque-1077 (Sigma). The cells were washed in RPMI-1640, diluted to 1×10^6 cells/ml and analyzed immediately. These assays were carried out in 24 well tissue culture plates utilizing 8.0 μm cell culture inserts (Falcon). Recombinant hMIF (90 nM), diluted in RPMI was placed in the cells of a 24 well plate with or without inhibitor (10-fold molar excess or dilution series) and allowed to incubate for 30 min at 37° C., 5% CO2. Washed human monocytes were added to the upper chamber of 8.0 μm cell culture inserts and allowed to incubate for 3 hrs at 37° C., 5% CO2. Cells that migrate through the membrane were fixed in methanol and stained with Geimsa, prior to cell counting using light microscopy.
# Results are expressed as the mean number of cells counted per high power field for each of two replicates to obtain statistically significant data. (Legend: −Star=no human MIF, Skull=no human MIF+10 uM (S)-AV1013. See FIGS. 5A and 5B.
# [3] = In vivo interconversion of enantiomers in rats dosed with enantiomerically pure (S)-AV1013; parameters: species or system rat; details: rats dosed with (S)-AV1013 of 99% enantiomeric excess, LLOQ=5 ng/mL
# formalin paw model = test: Inflammatory pain model (formalin paw model) in mice; assay type: in vivo; details: for % Change from Control / Licking Score (Mean +/− SEM): mice
# Procedure: The model employed is described in detail by Wheeler-Aceto et al (Psychopharmacology, 104, p 35-44, (1991)). Briefly, mice were given an intraplantar injection of 5% formalin (25 μl) into the posterior left paw. […] Mice were briefly observed at 1 minute intervals between 15 and 50 minutes after the injection of formalin and the number of times mice were observed licking the injected paw was recorded. 10 mice were studied in each group. The test was performed blind.
# AV1013-S was evaluated at 3 doses (10, 25 and 50 mg/kg), administered p.o. 60 minutes before the test (i.e. 45 minutes before formalin), and compared with a vehicle control group. Gabapentin (300 mg/kg p.o.), administered under the same experimental conditions, was used as reference substance. The experiment therefore included 5 groups.
# Data were analyzed by comparing treated groups with vehicle control using unpaired Mann-Whitney U tests.
# [4] = 10 mg/kg p.o. 60 min before the test
# [5] = 25 mg/kg p.o. 60 min before the test
smiles,measurement,setting,value
"CC(C)c1nn2ccccc2c1C(=O)[C@H](C)N [(S)-AV1013, (S)-2-amino-1-(2-isopropylpyrazolo[1,5-a]pyridin-3-yl)propan-1-one]",withdrawal behaviors relative to vehicle,[1],reduced withdrawal behaviors; also recorded: reduced withdrawal symptoms relative to those receiving vehicle
same,antagonism of MIF-induced cell migration,[2],antagonize MIF-induced macrophage migration in a dose-dependent fashion; also recorded: antagonize MIF-induced mononuclear cell migration in a similar dose dependent fashion
same,plasma levels of the (R) enantiomer after dosing (S) (in vivo racemization),[3],no detectable plasma levels of the corresponding (R) enantiomer
same,plasma levels of the (R) enantiomer after dosing (S) (in vivo racemization),[3]; listed as (S)-enantiomer,does not result in detectable levels of the (R)-enantiomer
same,% Change from Control,formalin paw model; [4],−16%
same,Licking Score (Mean +/− SEM),formalin paw model; [4],13.1 +/− 1.5
same,% Change from Control,formalin paw model; [5],−16%
same,Licking Score (Mean +/− SEM),formalin paw model; [5],13.1 +/− 1.8
same,% Change from Control,"formalin paw model; 50 mg/kg p.o. 60 min before the test, 50 mg/kg",−45%
same,Licking Score (Mean +/− SEM),"formalin paw model; 50 mg/kg p.o. 60 min before the test, p < 0.01",8.6 +/− 1.4 *
same,analgesic/anti-inflammatory activity in mouse formalin paw model (late-phase),formalin paw model; single oral dose of 50 mg/kg,demonstrated analgesic/anti-inflammatory activity
